From patent US9957247B2, “SecA inhibitors and methods of making and using thereof” (Georgia State University Research Foundation, Inc., priority 2012, dated 2018)
Converted amounts (≈) assume the structure as drawn. Where two headings read alike, the source gives them in different places.

What was measured:
EcSecA [1] = system: EcSecA
B. subtilis 168 [2] = experiment: Bacteriostatic effect, liquid microdilution, B. subtilis 168; assay type: cell-based; details: Bacillus subtilis, Example 2
BsSecA [3] = target: T1, BsSecA (Bacillus subtilis, UniProt P28366); experiment: cell-based; parameters: species or system B. subtilis
T1 sequence (P28366 whole entry): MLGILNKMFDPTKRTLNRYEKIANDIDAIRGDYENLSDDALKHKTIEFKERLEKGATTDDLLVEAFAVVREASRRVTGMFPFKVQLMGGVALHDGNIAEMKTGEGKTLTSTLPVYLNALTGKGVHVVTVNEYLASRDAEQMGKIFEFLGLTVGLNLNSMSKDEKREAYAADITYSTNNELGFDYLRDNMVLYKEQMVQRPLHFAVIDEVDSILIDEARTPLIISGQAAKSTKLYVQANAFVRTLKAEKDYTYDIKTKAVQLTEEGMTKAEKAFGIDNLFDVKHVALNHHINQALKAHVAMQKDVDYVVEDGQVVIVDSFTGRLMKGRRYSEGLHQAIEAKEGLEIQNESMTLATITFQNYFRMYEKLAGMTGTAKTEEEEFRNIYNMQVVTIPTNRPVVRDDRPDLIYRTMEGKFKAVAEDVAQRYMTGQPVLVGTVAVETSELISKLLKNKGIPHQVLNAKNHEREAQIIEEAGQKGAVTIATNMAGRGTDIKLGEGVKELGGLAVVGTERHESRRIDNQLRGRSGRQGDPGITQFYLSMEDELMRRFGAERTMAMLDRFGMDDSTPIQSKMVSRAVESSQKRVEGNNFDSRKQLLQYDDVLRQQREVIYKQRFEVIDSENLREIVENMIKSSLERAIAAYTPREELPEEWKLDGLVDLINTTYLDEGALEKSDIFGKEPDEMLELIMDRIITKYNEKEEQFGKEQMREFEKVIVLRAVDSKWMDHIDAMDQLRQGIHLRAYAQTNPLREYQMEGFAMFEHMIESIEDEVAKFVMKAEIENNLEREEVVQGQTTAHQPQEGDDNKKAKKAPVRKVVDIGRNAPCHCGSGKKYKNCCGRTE

EcSecA [4] = target: T2, EcSecA (Escherichia coli, UniProt P10408); experiment: cell-based
Target sequence in this assay (P10408 whole entry): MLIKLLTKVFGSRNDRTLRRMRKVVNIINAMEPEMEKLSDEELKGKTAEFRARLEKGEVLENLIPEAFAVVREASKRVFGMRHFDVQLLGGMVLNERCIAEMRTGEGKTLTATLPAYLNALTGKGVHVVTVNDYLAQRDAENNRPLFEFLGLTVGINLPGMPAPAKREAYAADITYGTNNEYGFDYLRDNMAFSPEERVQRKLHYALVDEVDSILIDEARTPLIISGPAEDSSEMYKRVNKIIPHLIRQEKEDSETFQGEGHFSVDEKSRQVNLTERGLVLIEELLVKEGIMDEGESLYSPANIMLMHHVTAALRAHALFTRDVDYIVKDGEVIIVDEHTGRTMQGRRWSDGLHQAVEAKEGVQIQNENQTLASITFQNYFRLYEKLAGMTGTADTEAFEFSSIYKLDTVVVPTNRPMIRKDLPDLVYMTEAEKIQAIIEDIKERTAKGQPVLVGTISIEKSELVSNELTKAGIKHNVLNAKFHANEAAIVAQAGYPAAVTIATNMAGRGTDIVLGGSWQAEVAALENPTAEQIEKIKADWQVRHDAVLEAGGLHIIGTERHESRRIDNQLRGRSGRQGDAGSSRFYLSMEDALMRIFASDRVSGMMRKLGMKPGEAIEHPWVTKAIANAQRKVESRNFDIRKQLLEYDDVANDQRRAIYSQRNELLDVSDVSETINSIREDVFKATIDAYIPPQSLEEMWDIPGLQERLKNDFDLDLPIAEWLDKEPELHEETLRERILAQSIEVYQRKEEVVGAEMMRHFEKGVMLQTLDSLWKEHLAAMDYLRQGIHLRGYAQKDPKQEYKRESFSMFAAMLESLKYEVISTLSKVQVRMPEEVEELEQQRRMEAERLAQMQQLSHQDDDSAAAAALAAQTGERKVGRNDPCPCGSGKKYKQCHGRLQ

EcSecA [5] = target: T2, EcSecA; details: read-out: IC50, translocation ATPase activity of EcSecA; Example 1
Target sequence in this assay (P0AG99 whole entry): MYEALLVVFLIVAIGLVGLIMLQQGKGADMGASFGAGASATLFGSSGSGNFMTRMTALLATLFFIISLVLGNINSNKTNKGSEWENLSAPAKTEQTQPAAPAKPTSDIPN
Target sequence in this assay (P10408 whole entry): as the sequence (P10408 whole entry) above
Target sequence in this assay (P0AGA2 whole entry, further chain): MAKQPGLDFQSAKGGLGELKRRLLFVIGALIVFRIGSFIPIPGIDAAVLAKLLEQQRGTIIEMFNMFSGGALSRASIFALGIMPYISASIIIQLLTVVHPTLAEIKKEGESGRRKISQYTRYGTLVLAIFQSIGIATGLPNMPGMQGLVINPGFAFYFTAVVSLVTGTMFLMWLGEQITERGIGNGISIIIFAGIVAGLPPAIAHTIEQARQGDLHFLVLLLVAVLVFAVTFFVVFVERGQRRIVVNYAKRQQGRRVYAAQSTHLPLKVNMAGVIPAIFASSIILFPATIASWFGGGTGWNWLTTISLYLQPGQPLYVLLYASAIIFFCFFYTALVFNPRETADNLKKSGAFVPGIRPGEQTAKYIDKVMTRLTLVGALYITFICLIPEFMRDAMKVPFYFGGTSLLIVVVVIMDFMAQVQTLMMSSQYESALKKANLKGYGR
Target sequence in this assay (P0AG96 whole entry, further chain): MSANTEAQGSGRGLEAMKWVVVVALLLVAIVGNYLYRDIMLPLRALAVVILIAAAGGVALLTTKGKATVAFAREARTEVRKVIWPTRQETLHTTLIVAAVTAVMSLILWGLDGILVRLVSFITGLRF

EcSecA [6] = target: T2, EcSecA; details: read-out: IC50, membrane ATPase activity of EcSecA; Example 1
Target sequence in this assay (P0AG99 whole entry): as the sequence (P0AG99 whole entry) above
Target sequence in this assay (P10408 whole entry): as the sequence (P10408 whole entry) above
Target sequence in this assay (P0AGA2 whole entry, further chain): as the sequence (P0AGA2 whole entry, further chain) above
Target sequence in this assay (P0AG96 whole entry, further chain): as the sequence (P0AG96 whole entry, further chain) above

F1F0-proton ATPase = F1F0-proton ATPase (Escherichia coli, UniProt P0ABB0+P0ABB4); experiment: Proton ATPase activity, reconstituted liposomes; assay type: biochemical, E. coli
Procedure: The N-terminal catalytic domain of SecA from E. coli (EcN68) was overexpressed from pIMBB28. EcN68 was used for the early and initial screening because it has higher intrinsic activity and is more sensitive to inhibitors. […] SecA proteins were purified as previously described. F1F0-proton ATPase-enriched membrane of E. coli strain KY7485 was prepared as described in the literature. F1F0-proton ATPase was partially purified by sucrose-gradient fractionation and then reconstituted into liposomes by dialysis. Non-radiolabeled and [^35S]-labeled proOmpA were purified as previously described. SecA-depleted BA13 membrane vesicles were prepared as described in the literature,[32] and washed with 6M urea to reduce endogenous ATPase activity.

BsSecA [7] = target: T1, BsSecA; experiment: biochemical; assay type: biochemical, B. subtilis; details: for Effect on the intrinsic ATPase activity of BsSecA: Example 1
EcSecA [8] = target: T2, EcSecA; details: read-out: IC50, in vitro protein translocation of proOmpA; Example 1
Target sequence in this assay (P0AG99 whole entry): as the sequence (P0AG99 whole entry) above
Target sequence in this assay (P10408 whole entry): as the sequence (P10408 whole entry) above
Target sequence in this assay (P0AGA2 whole entry, further chain): as the sequence (P0AGA2 whole entry, further chain) above
Target sequence in this assay (P0AG96 whole entry, further chain): as the sequence (P0AG96 whole entry, further chain) above

EcSecA [9] = assay type: biochemical, E. coli
EcSecA N68 = EcSecA N68 (Escherichia coli, UniProt P10408); experiment: biochemical; assay type: biochemical, E. coli
[10] = Bactericidal effect in the dark and under light (photooxidation); assay type: cell-based; details: for Effect of light on the bactericidal effect: under light versus dark
S. aureus N315 = experiment: Bacteriostatic effect, S. aureus N315; details: Staphylococcus aureus, N315, read-out: Bacteriostatic effect, MIC, S. aureus N315
S. aureus Mu50 = experiment: Bacteriostatic effect, S. aureus Mu50; details: Staphylococcus aureus
[11] = system: SecA (S. pyogenes, S. aureus, and E. coli); experiment: Oocyte assay, inhibition of SecA; details: read-out: IC50, inhibiting SecA in the oocyte assay
S. aureus 8325-4 = experiment: Bacteriostatic effect, S. aureus 8325-4 (WT); details: Staphylococcus aureus, 83254, read-out: Bacteriostatic effect, MIC, WT 8325-4
S. pyogenes, MGAS5005 = experiment: MIC95, S. pyogenes MGAS5005; assay type: cell-based; details: Streptococcus pyogenes, MGAS5005, read-out: MIC95, S. pyogenes MGAS5005
SpSecA = SpSecA (Streptococcus pyogenes, UniProt Q99Y96); assay type: cell-based; details: read-out: IC50, Ion Channel activity, SpSecA
S. aureus 6538 = experiment: Bacteriostatic effect, S. aureus 6538; details: Staphylococcus aureus, 6538, read-out: Bacteriostatic effect, MIC, S. aureus 6538
PaSecA = PaSecA (Pseudomonas aeruginosa, UniProt Q9LCT3); experiment: cell-based; assay type: cell-based
PaSecA, sequence (Q9LCT3 whole entry): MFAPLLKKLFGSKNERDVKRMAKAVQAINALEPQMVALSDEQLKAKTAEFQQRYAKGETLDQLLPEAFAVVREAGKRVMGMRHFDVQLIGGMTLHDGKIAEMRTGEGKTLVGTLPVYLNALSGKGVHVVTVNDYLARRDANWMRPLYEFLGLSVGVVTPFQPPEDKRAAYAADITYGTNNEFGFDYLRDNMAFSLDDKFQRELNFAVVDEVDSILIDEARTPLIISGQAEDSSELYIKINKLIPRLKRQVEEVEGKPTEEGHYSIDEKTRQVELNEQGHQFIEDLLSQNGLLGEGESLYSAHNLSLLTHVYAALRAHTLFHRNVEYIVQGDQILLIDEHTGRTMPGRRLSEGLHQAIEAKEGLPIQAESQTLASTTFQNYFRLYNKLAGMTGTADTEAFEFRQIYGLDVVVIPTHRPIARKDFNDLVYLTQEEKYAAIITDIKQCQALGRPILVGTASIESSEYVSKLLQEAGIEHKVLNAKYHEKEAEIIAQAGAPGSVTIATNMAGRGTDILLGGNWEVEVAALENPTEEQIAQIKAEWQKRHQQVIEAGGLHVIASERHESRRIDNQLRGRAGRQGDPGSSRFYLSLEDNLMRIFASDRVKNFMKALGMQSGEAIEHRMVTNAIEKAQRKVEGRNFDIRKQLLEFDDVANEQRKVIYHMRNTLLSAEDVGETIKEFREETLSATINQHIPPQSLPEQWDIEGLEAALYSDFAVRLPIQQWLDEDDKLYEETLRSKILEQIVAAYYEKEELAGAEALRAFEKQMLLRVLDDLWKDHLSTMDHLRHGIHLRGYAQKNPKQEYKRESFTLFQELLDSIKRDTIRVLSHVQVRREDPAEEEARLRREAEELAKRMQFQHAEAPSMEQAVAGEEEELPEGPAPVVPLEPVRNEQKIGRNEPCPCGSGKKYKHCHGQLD

S. aureus Mu3 = experiment: Bacteriostatic effect, S. aureus Mu3; details: Staphylococcus aureus, MU3, read-out: Bacteriostatic effect, MIC, S. aureus Mu3
BsSecA2 = details: read-out: IC50, Intrinsic ATPase, BsSecA2; Table 1
B. anthracis Sterne = experiment: microbe, parasite or virus in culture; assay type: cell-based; details: Bacillus anthracis, read-out: Bacteriostatic MIC95, B. anthracis Sterne
B. subtilis 168 [12] = experiment: Bactericidal effect assay, B. subtilis 168; assay type: cell-based
SaSecA2 = target: T3, SaSecA2 (Staphylococcus aureus, UniProt Q2FUW6); experiment: ATPase activity assay (malachite green), SaSecA2
T3 sequence (Q2FUW6 1-796): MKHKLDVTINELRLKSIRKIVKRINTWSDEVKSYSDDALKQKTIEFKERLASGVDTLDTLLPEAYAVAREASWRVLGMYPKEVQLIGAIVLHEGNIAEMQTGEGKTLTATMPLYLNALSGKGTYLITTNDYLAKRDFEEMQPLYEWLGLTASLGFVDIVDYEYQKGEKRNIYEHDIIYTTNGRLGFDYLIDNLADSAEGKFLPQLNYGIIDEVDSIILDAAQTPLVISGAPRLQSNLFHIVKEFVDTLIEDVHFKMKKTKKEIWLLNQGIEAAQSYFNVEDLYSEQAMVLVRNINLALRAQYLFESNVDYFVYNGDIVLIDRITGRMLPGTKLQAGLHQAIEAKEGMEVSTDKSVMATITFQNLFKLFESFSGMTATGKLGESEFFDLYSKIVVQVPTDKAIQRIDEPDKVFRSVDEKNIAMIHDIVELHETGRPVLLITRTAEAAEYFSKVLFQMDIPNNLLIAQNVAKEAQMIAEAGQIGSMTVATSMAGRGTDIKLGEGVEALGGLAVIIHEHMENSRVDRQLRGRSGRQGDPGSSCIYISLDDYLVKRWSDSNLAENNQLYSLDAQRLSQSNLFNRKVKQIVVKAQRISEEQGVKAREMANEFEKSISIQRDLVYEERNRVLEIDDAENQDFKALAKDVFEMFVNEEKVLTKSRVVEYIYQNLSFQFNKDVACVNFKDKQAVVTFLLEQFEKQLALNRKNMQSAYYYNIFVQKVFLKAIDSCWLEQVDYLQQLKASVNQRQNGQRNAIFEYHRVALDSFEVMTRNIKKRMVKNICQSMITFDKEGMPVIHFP

MtbSecA = MtbSecA (Mycobacterium tuberculosis, UniProt P9WGP5); experiment: cell-based
EcSecA [13] = target: T2, EcSecA; experiment: biochemical; details: IC50, Translocation ATPase, Table 1
Target sequence in this assay (P0AG99 whole entry): as the sequence (P0AG99 whole entry) above
Target sequence in this assay (P10408 whole entry): as the sequence (P10408 whole entry) above
Target sequence in this assay (P0AGA2 whole entry, further chain): as the sequence (P0AGA2 whole entry, further chain) above
Target sequence in this assay (P0AG96 whole entry, further chain): as the sequence (P0AG96 whole entry, further chain) above

MsSecA = MsSecA (Mycolicibacterium smegmatis, UniProt P71533); experiment: SecA-liposomes ion-channel activity in oocytes, MsSecA; assay type: cell-based; details: Table 1
EcSecA [14] = target: T2, EcSecA; experiment: biochemical; details: IC50, Protein Translocation, Table 1
Target sequence in this assay (P0AG99 whole entry): as the sequence (P0AG99 whole entry) above
Target sequence in this assay (P10408 whole entry): as the sequence (P10408 whole entry) above
Target sequence in this assay (P0AGA2 whole entry, further chain): as the sequence (P0AGA2 whole entry, further chain) above
Target sequence in this assay (P0AG96 whole entry, further chain): as the sequence (P0AG96 whole entry, further chain) above

[15] = system: S. aureus deletion strains (NorA−, MepA−) and strains (NorA++, MepA++) with over-expressed efflux pumps; experiment: Antimicrobial effect with deletion or over expression of efflux pumps in S. aureus
[16] = system: secretion of α-hemolysin, enterotoxin B and TSST-1 by S. aureus Mu50; assay type: cell-based
EcSecA [17] = target: T2, EcSecA; experiment: biochemical; parameters: species or system E. coli; details: IC50, Intrinsic ATPase, Table 1, full-length EcSecA
Target sequence in this assay (P10408 whole entry): as the sequence (P10408 whole entry) above

BaSecA1 = BaSecA1 (Bacillus anthracis, UniProt Q81X26); experiment: cell-based; details: IC50, Ion Channel activity, BGaSecA 1
[18] = IC50, Ion Channel activity, PASecA, Table 1
[19] = IC50, ATPase activity, SaSecA2, Table 7
[20] = IC50, Intrinsic ATPase, SaSecA2, Table 1
[21] = wild type, NorA−/MepA− and NorA++/MepA++ strains

In the case of `Oc1ccc2c(c1)Oc1cc(O)ccc1C2C1CCCCC1` [Compound 22d, 9-Cyclohexyl-9H-xanthene-3,6-diol], the “Potency against EcSecA over BsSecA, channel activity” value (EcSecA [1]) is reported as “about 2 fold”, the MIC (B. subtilis 168 [2]) is reported as 22 µM (≈ 6.52 µg/mL) and the IC50 (BsSecA [3]; Ion channel, IC50, BsSecA, Table 5) is reported as 6.6 µM. For the same compound, the IC50 (EcSecA [4]) was 2.8 µM.

`O.O=C([O-])c1ccccc1-c1c2cc(I)c(=O)c(I)c-2oc2c(I)c([O-])c(I)cc12.[Na+].[Na+]` [EB, Erythrosin B] gave an IC50 (EcSecA [5]) of 10 to 20 µM, an IC50 (EcSecA [6]) of 10 to 20 µM and an IC50 (F1F0-proton ATPase; Example 1, read-out: IC50 against F1F0-proton ATPase) of ~30 µM. The “Effect on the intrinsic ATPase activity of BsSecA” value (BsSecA [7]) was “inhibitory effects”, the IC50 (EcSecA [8]) was 4 µM and the “Mode of inhibition against ATP” value (EcSecA [9]; at low ATP concentrations) was “competitive inhibitors”. The IC50 (EcSecA N68; Example 1, fluorescein analogs, read-out: IC50, EcN68 SecA ATPase (unregulated ATPase)) was 2 µM.

With `O=C(O)c1c(Cl)c(Cl)c(Cl)c(Cl)c1-c1c2cc(I)c(=O)c(I)c-2oc2c(I)c(O)c(I)cc12` [RB, Rose Bengal] the “Bactericidal effect in the dark” value ([10]; dark) was “little bactericidal effect”, the “Effect of light on the bactericidal effect” value [10] was “dramatically increased” and the MIC (S. aureus N315) was 19.1 µg/mL (≈ 19.6 µM). It also gave an MIC (S. aureus Mu50; MU50, read-out: Bacteriostatic MIC95, S. aureus Mu50) of 40.7 µg/mL, an MIC (S. aureus Mu50; MU50, read-out: Bacteriostatic effect MIC, S. aureus Mu50) of 50.8 µg/mL and an MIC (S. aureus Mu50; MU50, read-out: Bacteriostatic effect, MIC, S. aureus Mu50) of 50.8 µg/mL. The IC50 [11] was 0.4 µM, the MIC (S. aureus 8325-4) was 13.2 µg/mL (≈ 13.6 µM) and the MIC (S. pyogenes, MGAS5005) was 6.25 µM (≈ 6.09 µg/mL). The IC50 (F1F0-proton ATPase) was ~10 µM, the IC50 (SpSecA; Table 1) was 0.9 µM and the “Effect on the intrinsic ATPase activity of BsSecA” value (BsSecA [7]) was “inhibitory effects”. The MIC (S. aureus 6538) was 38.2 µg/mL (≈ 39.2 µM), the MIC (B. subtilis 168 [2]) was 100 µM (≈ 97.4 µg/mL) and the “Inhibition kinetics, channel activity, PaSecA-liposomes” value (PaSecA; FIG. 3C) was “non-competitive inhibition”. For the same compound, the IC50 (PaSecA; [18]) was 0.3 µM, the IC50 (PaSecA; Rose Bengal IC50, channel activity, PaSecA, +SecYEG + SecDF•C) was 2 µM and the IC50 (PaSecA; Rose Bengal IC50, channel activity, PaSecA, BA13, BA13 (first value of BA13/Re-13)) was 5.1 µM. For the same compound, the IC50 (PaSecA; Rose Bengal IC50, channel activity, PaSecA, Liposome + SecYEG) was 1.1 µM, the IC50 (PaSecA; Rose Bengal IC50, channel activity, PaSecA, Liposomes) was 0.3 µM and the IC50 (PaSecA; Rose Bengal IC50, channel activity, PaSecA, Re-13, Re-13 (second value of BA13/Re-13)) was 0.3 µM. It also gave an MIC (S. aureus Mu3) of 38.2 µg/mL (≈ 39.2 µM), an IC50 (BsSecA2) of 15 µM and an MIC (B. anthracis Sterne) of 12.2 µg/mL (≈ 12.5 µM). The “Mode of inhibition against ATP” value (EcSecA [9]; at high ATP concentrations) was “competitive inhibition”, the “Bactericidal effect, kill of B. subtilis 168” value (B. subtilis 168 [12]; 20 μM, one hour, FIG. 2) was “little effect” and the “Decrease of cell survival (CFU)” value (B. subtilis 168 [12]; 100 μM, one-hour treatment) was ~8 log units. For the same compound, the IC50 (SaSecA2; [19]) was 2.5 µM and the IC50 (SaSecA2; [20]) was 1 µM.

With `Oc1ccc2c(c1)Oc1cc(O)ccc1C2C1CCCC1` [SCA-41] the “Effect of light on the bactericidal effect” value [10] was “not affected by light”, the IC50 (MtbSecA) was 3.2 µM and the MIC (S. aureus N315) was 14.1 µg/mL (≈ 49.9 µM). It also gave an MIC (S. aureus Mu50; MU50, read-out: Bacteriostatic MIC95, S. aureus Mu50, Table 2) of 1.7 µg/mL, an MIC (S. aureus Mu50; MU50, read-out: Bacteriostatic effect MIC, S. aureus Mu50, Table 10 and Example 4) of 8.8 µg/mL and an MIC (S. aureus Mu50; MU50, read-out: Bacteriostatic effect, MIC, S. aureus Mu50, Table 8) of 8.8 µg/mL. For the same compound, the MIC (S. aureus Mu50; MU50, read-out: MIC95 against drug resistant S. aureus Mu50) was 1.7 µM, the IC50 (EcSecA [13]) was 15 µM and the MIC (S. aureus 8325-4) was 11.8 µg/mL (≈ 41.8 µM). It also gave an IC50 (MsSecA) of 3.5 µM, an IC50 (SpSecA) of 3 µM and an IC50 (BsSecA [7]) of 30 µM. It also gave an IC50 (EcSecA [14]) of 55 µM, an MIC (S. aureus 6538) of 10.6 µg/mL (≈ 37.5 µM) and an IC50 (PaSecA; [18]) of 3.6 µM. For the same compound, the IC50 (BsSecA [3]; IC50, Ion Channel activity, BsSecA, Table 1) was 3 µM, the MIC (S. aureus Mu3) was 14.1 µg/mL (≈ 49.9 µM) and the “Change of MIC on overexpression or deletion of NorA or MepA” value [15] was “did not significantly change”. For the same compound, the “Bactericidal (killing) effect with over expression of efflux pumps” value [15, 21] was “not attenuated”, the “MIC (bacteriostatic) with over expression of efflux pumps” value [15, 21] was “did not increase” and the IC50 (BsSecA2) was 30 µM. The IC50 (EcSecA [4]) was 3.4 µM, the “Amount of α-hemolysin, enterotoxin B, and TSST-1 in the supernatant” value [16] was “significantly decreased” and the IC50 (EcSecA [17]) was 30 µM. It also gave an MIC (B. anthracis Sterne) of 1.1 µg/mL (≈ 3.9 µM), an IC50 (BaSecA1) of 3.8 µM and an IC50 (SaSecA2; [19]) of 32.5 µM. It also gave an IC50 (SaSecA2; [20]) of 6 µM and an IC50 (EcSecA N68) of 8 µM.
